Data reported in patent publication US12593841B2, “Antimicrobial mixture containing 4-(3-ethoxy-4-hydroxyphenyl)butan-2-one and an arginate compound, and cosmetic composition containing same” (L'OREAL, priority 2017, dated 2026).
Blank lines part the entries; values can stand above or below the compound they belong to.

Assays:
Format in all cases: cell-based
[1] = test system: Candida albicans ATCC 10231; test: MIC / synergy (FIC index) microplate growth test on Candida albicans
Excerpt: (§1) As regards the combinations tested, MICa with b and MICb with a are the respective concentrations of A and of B in the combinations which make it possible to obtain a microbial growth percentage of less than or equal to 25%.
(§2) When the FIC index value is less than or equal to 1, it is considered that the combination of test compounds has a synergistic effect.
The microbial strain Candida albicans ATCC 10231 and a double-concentration Sabouraud broth liquid culture medium were used.
(§3) A 96-well microplate at an incubation temperature of 32.5° C. is used.
(§4) The incubation time of the microplate for the three abovementioned strains is from 18 to 24 hours aerobically.
(§5) A 10% (weight/volume) stock solution was prepared by mixing 1 g of compound in 9 ml of aqueous 1‰ agar solution. Successive dilutions were made with the 1‰ agar solution. • Tests of compounds A and B alone
(§6) 50 μL of each of the daughter solutions obtained containing compound A or B are added to the microplate wells. 100 μl of Sabouraud liquid nutrient broth inoculated at double concentration with the strain Candida albicans and 50 μl of aqueous 1‰0 agar solution are also added thereto. • Tests of compounds A and B as a mixture
(§7) 50 μL of each of the daughter solutions obtained containing compound A and 50 μL of each of the daughter solutions obtained containing compound B are added to the microplate wells. 100 μl of Sabouraud liquid nutrient broth inoculated at double concentration with the strain Candida albicans are also added thereto.
(§8) A positive microbial growth control was also prepared. The positive microbial growth control corresponds to a mixture of 100 μl of aqueous 1‰ agar solution with 100 μl of Sabouraud liquid nutrient broth inoculated at double concentration with the strain Candida albicans in the absence of compounds A and B.
(§9) An absorbance control was performed in parallel on compounds A and B alone. This control corresponds to 100 μL of double concentration sterile Sabouraud liquid nutrient broth +100 μl of double concentration compound A or B.
(§10) In the three cases (absorbance control, growth control and test), the final volume present in each of the microplate wells is 200 μL.
In the two cases (test and control), the inoculum represents the concentration of the strain Candida albicans present in the final volume of the wells (200 μL) and is between 2 and 6×10^5 cfu/ml of Candida albicans.

[2] = test system: Staphylococcus aureus ATCC 6538; test: MIC / synergy (FIC index) microplate growth test on Staphylococcus aureus
Excerpt: as §1, §2
The microbial strain Staphylococcus aureus ATCC 6538 and a double-concentration nutrient broth liquid culture medium were used.
as §3, §4, §5, §6, §7, §8, §9, §10
(§11) The test as described above (tests, absorbance control and growth control) was performed again to test the combination A+B on the strains Staphylococcus aureus and Pseudomonas aeruginosa.

[3] = test system: Pseudomonas aeruginosa ATCC 9027; test: MIC / synergy (FIC index) microplate growth test on Pseudomonas aeruginosa
Excerpt: as §1, §2
The microbial strain Pseudomonas aeruginosa ATCC 9027 and a double-concentration nutrient broth liquid culture medium were used.
as §3, §4, §5, §6, §7, §8, §9, §10, §11

[4] = weight % of active material, growth <= 25%

% MIC of A alone [1, 4]: 0.2%
% MIC of A alone [2, 4]: 0.5%
% MIC of A alone [3, 4]: 2%
Compound: CCOc1cc(CCC(C)=O)ccc1O [A, 4-(3-ethoxy-4-hydroxyphenyl)butan-2-one]
microbial growth percentage ([1]; 0.025 weight % A alone (0 B)): 80%
microbial growth percentage ([1]; 0.05 weight % A alone (0 B)): 62%
microbial growth percentage ([1]; 0.1 weight % A alone (0 B)): 24%
microbial growth percentage ([1]; 0.2 weight % A alone (0 B)): 3%
microbial growth percentage ([2]; 0.125 weight % A alone (0 B)): 58%
microbial growth percentage ([2]; 0.25 weight % A alone (0 B)): 60%
microbial growth percentage ([2]; 0.5 weight % A alone (0 B)): 0%
microbial growth percentage ([3]; 0.125 weight % A alone (0 B)): 99%
microbial growth percentage ([3]; 0.25 weight % A alone (0 B)): 46%
microbial growth percentage ([3]; 0.5 weight % A alone (0 B)): 37%
microbial growth percentage ([3]; 1 weight % A alone (0 B)): 41%
microbial growth percentage ([3]; 2 weight % A alone (0 B)): 19%

% MIC of B alone [1, 4]: 0.005%
% MIC of B alone [2, 4]: 0.0005%
% MIC of B alone [3, 4]: 0.005%
Compound: CCCCCCCCCCCC(=O)N[C@@H](CCCNC(=N)N)C(=O)OCC.Cl [B, ethyl N-lauroyl arginate hydrochloride, reference compound]
microbial growth percentage ([1]; 0.0025 weight % B alone (0 A)): 28%
microbial growth percentage ([1]; 0.005 weight % B alone (0 A)): 9%
microbial growth percentage ([2]; 0.00025 weight % B alone (0 A)): 71%
microbial growth percentage ([2]; 0.0005 weight % B alone (0 A)): 0%
microbial growth percentage ([3]; 0.0025 weight % B alone (0 A)): 37%
microbial growth percentage ([3]; 0.005 weight % B alone (0 A)): 10%
